Measurements: ChEMBL document CHEMBL4371035, “Design, synthesis and biological evaluation of bifunctional inhibitors of membrane type 1 matrix metalloproteinase (MT1-MMP)” (Bioorg Med Chem, 2019)
Activity calls are given as the source filed them. The calls are words filed in the database; no cut-off is given here.

Tests used:
HT-1080 = assay: Cytotoxicity against human HT1080 cells at 10 to 50 uM after 4 hrs by MTS assay; format: cell-based; conditions: ht-1080, 4 h
[1] = target: T1, Matrix metalloproteinase-14 (Homo sapiens, UniProt P50281); assay: Inhibition of MT1-MMP mediated collagenolytic activity in human HT1080 cells stimulated with type I collagen for 48 hrs followed by compound addition at 1 to 10 uM and measured after 48 hrs by Coomassie Blue staining-based collagen film degradation assay; format: cell-based
[2] = Aqueous solubility of the compound; format: physicochemical; conditions: water (aqueous)
[3] = target: T1, Matrix metalloproteinase-14; assay: Inhibition of MT1-MMP-mediated collagen invasion in human HT1080 cells attached to gelatin-coated Cytodex 3 microcarrier beads assessed as cell migration out from the bead surface into collagen matrix at 1 to 10 uM and measured after overnight incubation by microcarriers beads invasion assay; format: cell-based
[4] = target: T1, Matrix metalloproteinase-14; assay: Inhibition of recombinant human MT1-MMP catalytic domain using Mca-Lys-Pro-Leu-Gly-Leu-Dap(Dnp)-Ala-Arg-NH2 as substrate preincubated for 3 hrs followed by substrate addition and measured every 10 secs for 15 min by fluorometric assay
[5] = target: Matrix metalloproteinase-9 (Homo sapiens, UniProt P14780); assay: Inhibition of recombinant human proMMP9 using Mca-Lys-Pro-Leu-Gly-Leu-Dap(Dnp)-Ala-Arg-NH2 as substrate preincubated for 3 hrs followed by substrate addition and measured every 10 secs for 15 mins in presence of APMA by fluorometric assay
[6] = target: T1, Matrix metalloproteinase-14; assay: Inhibition of MT1-MMP-mediated proMMP-2 activation in human HT1080 cells stimulated with type I collagen for 24 hrs followed by compound addition assessed as increase in proMT1-MMP (65 KDa) level at 1 to 10 uM and measured after 24 hrs by Western blot analysis; format: cell-based
[7] = target: T1, Matrix metalloproteinase-14; assay: Inhibition of MT1-MMP-mediated proMMP-2 activation in human HT1080 cells stimulated with type I collagen for 24 hrs followed by compound addition assessed as increase in active MT1-MMP (55 KDa) level at 1 to 10 uM and measured after 24 hrs by Western blot analysis; format: cell-based
Interstitial collagenase = target: T2, Interstitial collagenase (Homo sapiens, UniProt P03956); assay: Inhibition of recombinant human pro-MMP1 using Mca-Lys-Pro-Leu-Gly-Leu-Dap(Dnp)-Ala-Arg-NH2 as substrate preincubated for 3 hrs followed by substrate addition and measured every 10 secs for 15 mins in presence of APMA by fluorometric assay
T2 sequence (P03956 whole entry): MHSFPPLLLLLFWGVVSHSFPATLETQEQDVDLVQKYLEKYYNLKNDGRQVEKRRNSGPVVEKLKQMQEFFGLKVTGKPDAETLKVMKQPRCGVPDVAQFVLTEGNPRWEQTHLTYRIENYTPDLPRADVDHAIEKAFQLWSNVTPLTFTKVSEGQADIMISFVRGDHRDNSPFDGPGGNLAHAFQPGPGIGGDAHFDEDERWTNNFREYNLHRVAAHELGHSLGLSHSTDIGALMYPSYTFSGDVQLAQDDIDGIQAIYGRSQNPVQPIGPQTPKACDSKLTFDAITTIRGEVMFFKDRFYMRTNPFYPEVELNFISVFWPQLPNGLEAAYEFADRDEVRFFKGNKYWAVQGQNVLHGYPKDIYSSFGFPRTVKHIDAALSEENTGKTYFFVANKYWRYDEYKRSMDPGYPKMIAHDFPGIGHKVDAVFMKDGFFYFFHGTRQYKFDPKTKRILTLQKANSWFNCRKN

[8] = target: T1, Matrix metalloproteinase-14; assay: Inhibition of MT1-MMP-mediated proMMP-2 activation in human HT1080 cells stimulated with type I collagen for 24 hrs followed by compound addition at <0.1 uM and measured after 24 hrs by gelatin zymography assay; format: cell-based
[9] = target: 72 kDa type IV collagenase (Homo sapiens, UniProt P08253); assay: Inhibition of recombinant human proMMP2 using Mca-Lys-Pro-Leu-Gly-Leu-Dap(Dnp)-Ala-Arg-NH2 as substrate preincubated for 3 hrs followed by substrate addition and measured every 10 secs for 15 mins in presence of APMA by fluorometric assay
[10] = target: T1, Matrix metalloproteinase-14; assay: Inhibition of MT1-MMP-mediated proMMP-2 activation in human HT1080 cells stimulated with type I collagen for 24 hrs followed by compound addition at 1 to 10 uM and measured after 24 hrs by gelatin zymography assay; format: cell-based
[11] = target: T1, Matrix metalloproteinase-14; conditions: 0.01 to 10 uM
Description: Inhibition of MT1-MMP-mediated proMMP-2 activation in human HT1080 cells stimulated with type I collagen for 24 hrs followed by compound addition assessed as reduction in processed form of MT1-MMP (40 KDa) level at 0.01 to 10 uM and measured after 24 hrs by Western blot analysis

[12] = target: T1, Matrix metalloproteinase-14; conditions: 10 uM
Description: Inhibition of MT1-MMP-mediated proMMP-2 activation in human HT1080 cells stimulated with type I collagen for 24 hrs followed by compound addition at 10 uM and measured after 24 hrs by gelatin zymography assay

[13] = target: T1, Matrix metalloproteinase-14; assay: Inhibition of MT1-MMP-mediated proMMP-2 activation in human HT1080 cells stimulated with type I collagen for 24 hrs followed by compound addition assessed as increase in proMT1-MMP (65 KDa) level at 0.01 to 10 uM and measured after 24 hrs by Western blot analysis; format: cell-based
[14] = target: T1, Matrix metalloproteinase-14; conditions: 0.01 to 10 uM; remark: listed apart in the source
Description: Inhibition of MT1-MMP-mediated proMMP-2 activation in human HT1080 cells stimulated with type I collagen for 24 hrs followed by compound addition assessed as increase in active MT1-MMP (55 KDa) level at 0.01 to 10 uM and measured after 24 hrs by Western blot analysis

[15] = target: T1, Matrix metalloproteinase-14; conditions: 1 to 10 uM
Description: Inhibition of MT1-MMP-mediated proMMP-2 activation in human HT1080 cells stimulated with type I collagen for 24 hrs followed by compound addition assessed as reduction in processed form of MT1-MMP (40 KDa) level at 1 to 10 uM and measured after 24 hrs by Western blot analysis

[16] = target: T1, Matrix metalloproteinase-14; conditions: 0.1 to 10 uM
Description: Inhibition of MT1-MMP-mediated proMMP-2 activation in human HT1080 cells stimulated with type I collagen for 24 hrs followed by compound addition at 0.1 to 10 uM and measured after 24 hrs by gelatin zymography assay

[17] = target: T1, Matrix metalloproteinase-14; conditions: 10 uM; remark: listed apart in the source
Description: Inhibition of MT1-MMP mediated collagenolytic activity in human HT1080 cells stimulated with type I collagen for 48 hrs followed by compound addition at 10 uM and measured after 48 hrs by Coomassie Blue staining-based collagen film degradation assay

[18] = target: T1, Matrix metalloproteinase-14; conditions: 0.01 uM
Description: Inhibition of MT1-MMP-mediated proMMP-2 activation in human HT1080 cells stimulated with type I collagen for 24 hrs followed by compound addition at 0.01 uM and measured after 24 hrs by gelatin zymography assay

Matrix metalloproteinase-9, sequence (P14780 whole entry): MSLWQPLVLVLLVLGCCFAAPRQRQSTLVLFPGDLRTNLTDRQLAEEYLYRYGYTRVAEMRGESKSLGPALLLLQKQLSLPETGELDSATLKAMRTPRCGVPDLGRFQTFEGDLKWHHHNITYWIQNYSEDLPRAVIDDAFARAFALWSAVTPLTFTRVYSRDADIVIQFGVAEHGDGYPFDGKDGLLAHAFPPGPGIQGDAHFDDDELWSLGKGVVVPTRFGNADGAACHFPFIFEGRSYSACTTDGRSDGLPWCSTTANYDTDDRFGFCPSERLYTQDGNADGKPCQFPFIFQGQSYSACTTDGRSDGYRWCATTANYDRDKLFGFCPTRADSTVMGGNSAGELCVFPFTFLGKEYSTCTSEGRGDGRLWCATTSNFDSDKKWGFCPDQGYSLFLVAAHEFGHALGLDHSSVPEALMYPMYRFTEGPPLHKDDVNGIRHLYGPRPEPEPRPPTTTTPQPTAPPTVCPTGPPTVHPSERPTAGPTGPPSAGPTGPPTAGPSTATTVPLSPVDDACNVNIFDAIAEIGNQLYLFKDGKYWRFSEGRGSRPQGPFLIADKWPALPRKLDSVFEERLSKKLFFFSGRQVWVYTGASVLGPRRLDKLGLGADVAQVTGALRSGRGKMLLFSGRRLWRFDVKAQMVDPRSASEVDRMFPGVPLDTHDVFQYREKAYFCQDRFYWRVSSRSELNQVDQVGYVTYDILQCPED
72 kDa type IV collagenase, sequence (P08253 whole entry): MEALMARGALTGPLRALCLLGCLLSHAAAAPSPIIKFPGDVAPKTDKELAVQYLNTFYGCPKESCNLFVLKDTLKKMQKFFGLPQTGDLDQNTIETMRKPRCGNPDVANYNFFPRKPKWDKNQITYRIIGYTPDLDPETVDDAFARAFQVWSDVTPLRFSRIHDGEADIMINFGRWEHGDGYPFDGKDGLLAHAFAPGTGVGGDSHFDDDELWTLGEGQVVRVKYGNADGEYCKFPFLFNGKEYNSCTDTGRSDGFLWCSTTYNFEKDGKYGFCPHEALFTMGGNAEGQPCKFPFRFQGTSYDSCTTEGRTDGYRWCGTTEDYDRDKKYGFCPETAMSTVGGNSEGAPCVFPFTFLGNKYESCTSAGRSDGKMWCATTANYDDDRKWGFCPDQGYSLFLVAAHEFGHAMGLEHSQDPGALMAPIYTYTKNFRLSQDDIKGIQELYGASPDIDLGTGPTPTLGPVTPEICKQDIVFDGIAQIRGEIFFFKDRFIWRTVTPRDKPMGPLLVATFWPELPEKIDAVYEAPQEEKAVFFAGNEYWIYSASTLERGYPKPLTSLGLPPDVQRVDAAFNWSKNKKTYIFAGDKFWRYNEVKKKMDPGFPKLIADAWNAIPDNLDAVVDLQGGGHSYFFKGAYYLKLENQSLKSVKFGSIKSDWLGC

inhibition [1] | inhibition [3] | IC50 [4] [nM] | IC50 [5] [nM] | inhibition [6] | inhibition [7] | IC50 (Interstitial collagenase) [nM] | IC50 [9] [nM] | Structure (SMILES) | Activity (HT-1080) | also measured
Active | Active | 14 | 14 | Dose-dependent effect | Dose-dependent effect | 150 | 13 | COc1ccc(-c2ccc(S(=O)(=O)N(CCNC(=O)c3cccc(C(=O)NCCN([C@H](CCN4C(=O)c5ccccc5C4=O)C(=O)NO)S(=O)(=O)c4ccc(-c5ccc(OC)cc5)cc4)c3)[C@H](CCN3C(=O)c4ccccc4C3=O)C(=O)NO)cc2)cc1 | Non-Toxic | solubility [2]: > 1000 µM; inhibition [8]: inactive; inhibition [10]: Active
Active | Active |  |  |  |  | 170 |  | COc1ccc(-c2ccc(S(=O)(=O)N(OC(C)C)[C@H](CCN3C(=O)c4ccccc4C3=O)C(=O)NO)cc2)cc1 | Toxic | inhibition [11]: inactive; inhibition [12]: Active; inhibition [13]: inactive; inhibition [14]: inactive
 |  | 80 | 1.25 |  |  | 870 | 1.2 | O=C(NCC[C@@H](NS(=O)(=O)c1ccc(-c2ccccc2)cc1)C(=O)NO)c1cccc(C(=O)NCC[C@@H](NS(=O)(=O)c2ccc(-c3ccccc3)cc2)C(=O)NO)c1 |  | 
 |  | 7 | 2.1 |  |  | 45 | 4.1 | COc1ccc(-c2ccc(S(=O)(=O)N(CCNC(=O)CCCNC(=O)c3cccc(C(=O)NCCCC(=O)NCCN([C@H](CCN4C(=O)c5ccccc5C4=O)C(=O)NO)S(=O)(=O)c4ccc(-c5ccc(OC)cc5)cc4)c3)[C@H](CCN3C(=O)c4ccccc4C3=O)C(=O)NO)cc2)cc1 |  | 
 |  |  |  | Active | Active |  |  | CNC(=O)[C@H](Cc1c[nH]c2ccccc12)NC(=O)[C@@H](CC(=O)NO)CC(C)C |  | inhibition [15]: Active; inhibition [16]: Active; inhibition [17]: 100%; inhibition [18]: inactive
 |  | 41 | 8.7 |  |  | 155 | 1.6 | O=C(CCCNC(=O)c1cccc(C(=O)NCCCC(=O)NCC[C@@H](NS(=O)(=O)c2ccc(-c3ccccc3)cc2)C(=O)NO)c1)NCC[C@@H](NS(=O)(=O)c1ccc(-c2ccccc2)cc1)C(=O)NO |  | 
